# Patent US20170209432A1, “LYSINE DEMETHYLASE INHIBITORS FOR MYELOPROLIFERATIVE OR LYMPHOPROLIFERATIVE DISEASES OR DISORDERS” (ORYZON GENOMICS S.A., priority 2011, published 2017)
# Where two headings read alike, the source gives them in different places.
# Legend:
# [1] = system: K562 chronic myelogenous leukemia cells; assay: In vitro cytotoxicity, fluorometry-based cell viability, K562; conditions: Homo sapiens, K562, 72 h
# Procedure: (§1) K562 chronic myelogenous leukemia cells were seeded at different cell densities in 96-well plates. 24 hours later, compounds were added at serial dilutions.
# [2] = system: platelets; assay: Platelet levels in mice after 5 consecutive once daily injections; assay type: in vivo, mice (Hsd:Athymic Nude-Foxn1nu); conditions: blood 60min after last dose
# Procedure: On the fifth day, 60min after the administration, mice were sacrificed and blood was collected in sodium citrate-containing tubes for haemogram analysis. Platelet levels were determined and referred as % of platelets compared with the levels found in mice treated with vehicle. Platelet levels were determined in a standard hematology analyzer (Abacus Junior Vet, from Diatron) following the manufacturer's instructions.
# 20% 2-hydroxypropyl-β-cyclodextrin in H2O was used as a vehicle. When necessary, 10% DMSO was also added in the vehicle. Each day, compounds were administered in a single intraperitoneal injection with administration volumes of 15 ml/kg.
# Mice strain was Hsd:Athymic Nude-Foxn1nu. Animals were maintained in air and temperature controlled cages with regular supply of water and food.
# [3] = target: T1, Human recombinant monoamine oxidase MAO-A (Homo sapiens, UniProt P21397); assay: MAO-A inhibition, kynuramine fluorescence assay; assay type: biochemical
# T1 construct: purchased Sigma Aldrich
# T1 sequence (P21397 1-527): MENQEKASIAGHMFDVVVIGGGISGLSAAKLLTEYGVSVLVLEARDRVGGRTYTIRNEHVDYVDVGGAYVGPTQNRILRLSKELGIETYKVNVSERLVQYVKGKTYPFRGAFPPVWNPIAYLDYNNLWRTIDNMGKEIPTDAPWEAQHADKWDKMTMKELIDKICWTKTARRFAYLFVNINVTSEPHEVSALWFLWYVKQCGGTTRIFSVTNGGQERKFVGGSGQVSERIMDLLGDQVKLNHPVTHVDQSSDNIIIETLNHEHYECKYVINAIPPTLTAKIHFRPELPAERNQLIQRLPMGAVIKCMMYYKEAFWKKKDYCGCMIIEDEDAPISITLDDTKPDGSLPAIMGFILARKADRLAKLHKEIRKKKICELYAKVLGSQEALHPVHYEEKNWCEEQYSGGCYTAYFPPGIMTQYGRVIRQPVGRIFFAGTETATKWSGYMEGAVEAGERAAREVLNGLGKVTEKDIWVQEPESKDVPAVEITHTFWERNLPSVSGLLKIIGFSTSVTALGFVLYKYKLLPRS
# Text: (§2) Human recombinant monoamine oxidase proteins MAO-A and MAO-B were purchased from Sigma Aldrich. MAOs catalyze the oxidative deamination of primary, secondary and tertiary amines. In order to monitor MAO enzymatic activities and/or their inhibition rate by inhibitor(s) of interest, a fluorescent-based (inhibitor)-screening assay was set up. 3-(2-Aminophenyl)-3-oxopropanamine (kynuramine dihydrobromide, Sigma Aldrich), a non fluorescent compound was chosen as a substrate. Kynuramine is a non-specific substrate for both MAOs activities. While undergoing oxidative deamination by MAO activities, kynuramine is converted into 4-hydroxyquinoline (4-HQ), a resulting fluorescent product.
# The monoamine oxidase activity was estimated by measuring the conversion of kynuramine into 4-hydroxyquinoline. Assays were conducted in 96-well black plates with clear bottom (Corning) in a final volume of 100 μL. The assay buffer was 100 mM HEPES, pH 7.5. Each experiment was performed in triplicate within the same experiment.
# Briefly, a fixed amount of MAO (0.25 μg for MAO-A and 0.5 μg for MAO-B) was incubated on ice for 15 minutes in the reaction buffer, in the absence and/or in the presence of various concentrations of inhibitor (e.g., from 0 to 50 μM, depending on the inhibitor strength).
# (§3) After leaving the enzyme(s) interacting with the inhibitor, 60 to 90 μM of kynuramine was added to each reaction for MAO-B and MAO-A assay respectively, and the reaction was left for 1 hour at 37° C. in the dark. The oxidative deamination of the substrate was stopped by adding 50 μL (v/v) of NaOH 2N. The conversion of kynuramine to 4-hydroxyquinoline, was monitored by fluorescence (excitation at 320 nm, emission at 360 nm) using a microplate reader (Infinite 200, Tecan). Arbitrary units were used to measure levels of fluorescence produced in the absence and/or in the presence of inhibitor.
# (§4) The Ki (IC50) of each inhibitor was determined at Vmax/2.
# [4] = target: LSD1 (Homo sapiens, UniProt O60341); assay: LSD1 demethylase inhibition, Amplex Red peroxide/peroxidase-coupled assay; assay type: biochemical; parameters: purchased BPS Bioscience Inc
# Text: Compounds for use in the methods of the invention can be identified by their ability to inhibit LSD1. The ability of the compounds of the invention to inhibit LSD1 can be tested as follows. Human recombinant LSD1 protein was purchased from BPS Bioscience Inc. In order to monitor LSD1 enzymatic activity and/or its inhibition rate by our inhibitor(s) of interest, di-methylated H3-K4 peptide (Millipore) was chosen as a substrate. The demethylase activity was estimated, under aerobic conditions, by measuring the release of H2O2 produced during the catalytic process, using the Amplex® Red peroxide/peroxidase-coupled assay kit (Invitrogen).
# Within the experiment, each concentration of inhibitor was tested in triplicate. […] The enzymatic reactions were set up in a 50 mM sodium phosphate, pH 7.4 buffer. At the end of the incubation, Amplex® Red reagent and horseradish peroxidase (HPR) solution were added to the reaction according to the recommendations provided by the supplier (Invitrogen), and left to incubate for 30 extra minutes at room temperature in the dark. A 1 μM H2O2 solution was used as a control of the kit efficiency. The conversion of the Amplex® Red reagent to resorufin due to the presence of H2O2 in the assay, was monitored by fluorescence (excitation at 540 nm, emission at 590 nm) using a microplate reader (Infinite 200, Tecan). Arbitrary units were used to measure level of H2O2 produced in the absence and/or in the presence of inhibitor.
# The maximum demethylase activity of LSD1 was obtained in the absence of inhibitor and corrected for background fluorescence in the absence of LSD1. The Ki (IC50) of each inhibitor was estimated at half of the maximum activity.
# [5] = system: H3K4 methylation in SH-SY5Y cells; assay: Western blot for dimethylated H3-K4 in cells grown with compound; assay type: cell-based
# Text: FIG. 3 Compound Dual-1 Increases Histone Methylation.
# B-actin was used as a loading control.
# [6] = target: T2, Human recombinant monoamine oxidase MAO-B (Homo sapiens, UniProt P27338); assay: MAO-B inhibition, kynuramine fluorescence assay; assay type: biochemical
# T2 construct: purchased Sigma Aldrich
# T2 sequence (P27338 1-520): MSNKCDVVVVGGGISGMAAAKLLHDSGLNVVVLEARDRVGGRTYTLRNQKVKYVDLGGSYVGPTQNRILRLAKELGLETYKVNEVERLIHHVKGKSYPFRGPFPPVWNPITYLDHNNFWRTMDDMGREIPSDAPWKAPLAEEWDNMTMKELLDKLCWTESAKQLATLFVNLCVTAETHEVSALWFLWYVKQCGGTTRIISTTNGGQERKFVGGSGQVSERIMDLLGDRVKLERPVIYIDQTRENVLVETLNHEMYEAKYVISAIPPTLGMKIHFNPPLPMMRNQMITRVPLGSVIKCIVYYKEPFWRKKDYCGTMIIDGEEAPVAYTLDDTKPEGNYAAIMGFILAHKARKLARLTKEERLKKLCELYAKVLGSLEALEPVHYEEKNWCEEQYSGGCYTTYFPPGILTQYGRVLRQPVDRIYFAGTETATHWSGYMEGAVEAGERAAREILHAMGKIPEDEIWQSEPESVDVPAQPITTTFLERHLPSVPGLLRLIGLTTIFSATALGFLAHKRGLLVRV
# Text: as §2
# The monoamine oxidase activity was estimated by measuring the conversion of kynuramine into 4-hydroxyquinoline. […]
# as §3, with “The oxidative deamination of the substrate was stopped by adding 50 μL (v/v) of NaOH 2N.” left out
# as §4
# [7] = system: Jurkat (acute T cell leukemia); assay: In vitro cytotoxicity, Jurkat; assay type: cell-based; conditions: Homo sapiens, same protocol as K562
# Procedure: as §1
# (§5) Following the same protocol, in vitro cytotoxicity against other hematological cancer cell lines was tested.
# [8] = system: RPMI-8226 (Multiple myeloma); assay: In vitro cytotoxicity, RPMI-8226; assay type: cell-based; conditions: Homo sapiens; RPMI-8226, same protocol as K562
# Procedure: as §1, §5
# [9] = system: HL-60 (acute promyelocytic leukemia); assay: In vitro cytotoxicity, HL-60; assay type: cell-based; conditions: Homo sapiens; HL-60, same protocol as K562
# Procedure: as §1, §5
# [10] = read-out: EC50 (μM), concentration at which 50% of the cells remain viable, K562, cell density 3xA, 72h after compound addition
# [11] = read-out: EC50 (μM), concentration at which 50% of the cells remain viable, K562, cell density 10xA, 72h after compound addition
# [12] = read-out: EC50 (μM), concentration at which 50% of the cells remain viable, K562, cell density A, 72h after compound addition
# [13] = 10 mg/kg intraperitoneal once daily for 5 days
# [14] = 30 mg/kg intraperitoneal once daily for 5 days
# [15] = 20 mg/kg intraperitoneal once daily for 5 days
# [16] = 40 mg/kg intraperitoneal once daily for 5 days
# [17] = 3 mg/kg intraperitoneal once daily for 5 days
IC50 [3] [µM],IC50 [4] [µM],Structure (SMILES),"EC50 [1, 10] [µM]","EC50 [1, 11] [µM]","EC50 [1, 12] [µM]","% platelets vs. Vehicle [2, 13] [%]",also measured
–,–,CC(C)S(=O)(=O)Nc1cccc(-c2ccc([C@H]3C[C@@H]3N)cn2)c1 [Compound 9],57.1,95.1,31.5,–,–
–,–,N[C@H]1CCN(CCN[C@H]2C[C@@H]2c2ccc(-c3cccc(C(F)(F)F)c3)cc2)C1 [Compound 5],–,–,–,87,"% platelets vs. Vehicle [2, 14]: 63%"
> 2,< 0.2,NC(=O)CN[C@H]1CC1c1ccc(OCc2ccccc2)cc1 (stereo partly drawn) [Compound 1],–,–,–,66,"% platelets vs. Vehicle ([2]; 5 mg/kg intraperitoneal once daily for 5 days): 91%; % platelets vs. Vehicle [2, 15]: 55%; % platelets vs. Vehicle [2, 16]: 34%; H3K4 methylation in cells (western blot) ([5]; SH-SY5Y cells grown with compound for 1, 2, and 3 days, Dual-1 at 100 μM (FIG. 3)): increases H3K4 (4 methylation in cells in a time dependent manner; potency at increasing global dimethylated H3K4 levels as compared to tranylcypromine ([5]; SH-SY5Y cells, Dual-1 at 100 μM, parnate at 250 μM): ≥ 10 fold"
–,–,CN1CCN(C(=O)CN[C@H]2C[C@@H]2c2ccc(OCc3ccccc3)cc2)CC1 (racemic) [Compound 3],–,–,–,5,"% platelets vs. Vehicle ([2]; 1 mg/kg intraperitoneal once daily for 5 days): 46%; % platelets vs. Vehicle [2, 17]: 16%"
> 1,< 0.07,CC(C)S(=O)(=O)Nc1cccc(-c2ccc([C@H]3C[C@@H]3N)cc2)c1 [Compound 8],16.3,19.7,17.2,–,IC50 [6]: > 10 µM; GI50 [7]: 18.2 µM; GI50 [8]: 35.6 µM; GI50 [9]: 21.2 µM
–,–,N[C@H]1C[C@@H]1c1ccc(-c2cccc(C(F)(F)F)c2)nc1 [Compound 4],–,–,–,19,"% platelets vs. Vehicle [2, 17]: 87%; % platelets vs. Vehicle ([2]; 9 mg/kg intraperitoneal once daily for 5 days): 30%; % platelets vs. Vehicle ([2]; 18 mg/kg intraperitoneal once daily for 5 days): 19%; % platelets vs. Vehicle [2, 14]: 7%; % platelets vs. Vehicle ([2]; 36 mg/kg intraperitoneal once daily for 5 days): 11%"
–,–,N[C@H]1C[C@@H]1c1ccc(-c2cccc(NS(=O)(=O)c3ccccc3)c2)cc1 [Compound 10],13.2,17.4,14.8,–,–
> 2,< 0.2,NC(=O)CN[C@@H]1C[C@H]1c1ccc(OCc2ccccc2)cc1 [Compound 2],–,–,–,–,"% platelets vs. Vehicle [2, 15]: 35%; % platelets vs. Vehicle [2, 16]: 27%; % platelets vs. Vehicle ([2]; 60 mg/kg intraperitoneal once daily for 5 days): 16%"

Structure (SMILES),IC50 [3] [µM],IC50 [4] [µM],"EC50 [1, 10] [µM]","EC50 [1, 11] [µM]","EC50 [1, 12] [µM]","% platelets vs. Vehicle [2, 13] [%]",also measured
N[C@H]1CC1c1ccc(-c2cccc(O)c2)cc1 (stereo partly drawn) [Compound 6],> 1,< 0.07,10.3,16.8,16.2,–,% platelets vs. Vehicle ([2]; 17 mg/kg intraperitoneal once daily for 5 days): 56%; % platelets vs. Vehicle ([2]; 34 mg/kg intraperitoneal once daily for 5 days): 46%; % platelets vs. Vehicle ([2]; 52 mg/kg intraperitoneal once daily for 5 days): 63%; IC50 [6]: > 1 µM
